Experiment [1] addresses T1, Dual specificity protein phosphatase 26 (Homo sapiens, UniProt Q9BV47).
T1 sequence (Q9BV47 whole entry): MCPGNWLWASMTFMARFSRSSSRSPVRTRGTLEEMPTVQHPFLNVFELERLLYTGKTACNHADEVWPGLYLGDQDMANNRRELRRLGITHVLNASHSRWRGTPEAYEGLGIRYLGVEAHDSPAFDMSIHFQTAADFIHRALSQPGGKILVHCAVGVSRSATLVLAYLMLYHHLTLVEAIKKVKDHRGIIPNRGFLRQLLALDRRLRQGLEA
The experiment is described as follows: inhibition of Homo sapiens (human) recombinant DUSP26 catalytic domain (61 to 211 amino acid residues) overexpressed in Escherichia coli BL21 (DE3) assessed as hydrolysis of 3-ortho-methylfluorescein phosphate after 30 min by spectrofluorometric analysis.

The target in experiment [2] is T1, Dual specificity protein phosphatase 26. The experiment is described as follows: Inhibition of DUSP26 (unknown origin)-mediated p38 dephosphorylation.

`O=C(O)CCN1C(=O)/C(=C/c2cn(-c3ccccc3)nc2-c2cccc([N+](=O)[O-])c2)SC1=S`: the IC50 in experiment [1] amounted to 22.3 µM. As to `O=C(O)c1cccc(N2C(=O)/C(=C\c3ccc(O)c(O)c3)SC2=S)c1`, the IC50 in experiment [1] came to 25.1 µM.

For `O=C(CN1C(=O)/C(=C\C=C\c2ccccc2)SC1=S)Nc1ccc(O)cc1C(=O)O`, the IC50 in experiment [1] is 26.3 µM. For the compound `C=CCOc1ccc(/C=C2\SC(=S)N(c3cccc(C(=O)O)c3)C2=O)cc1`, in experiment [1], the IC50 worked out at 30.2 µM. On the same count and under the same terms, with `CCc1cc(CC)cc(OCCOc2ccccc2/C=C2/C(=O)NN(c3ccccc3)C2=O)c1` the figure was 36.6 µM; with `CCN1C(=O)/C(=C/c2ccccc2OCc2ccccc2C#N)S/C1=N/c1ccc(C(=O)O)cc1`, 41.7 µM. On the same count and under the same terms, with `O=C1OC(c2ccc(Cl)cc2)=C/C1=C\c1ccc(-c2cccc(C(=O)O)c2)o1` the figure was over 100 µM; with `Cc1ccc(C2=C/C(=C\c3ccc(-c4cccc(C(=O)O)c4)o3)C(=O)O2)cc1`, over 100 µM; with `CN1C(=O)/C(=C/c2ccc(OCc3cccc([N+](=O)[O-])c3)cc2)S/C1=N/c1cccc(C(=O)O)c1`, 19.8 µM. Turning to `CN1C(=O)/C(=C/c2ccc(OCc3ccc(F)cc3)cc2)S/C1=N/c1cccc(C(=O)O)c1`, in experiment [1], the IC50 is 26.9 µM. Still for that read-out and setting: with `O=C1OC(c2ccc(Cl)cc2)=C/C1=C\c1ccc(-c2ccc(Cl)c(C(=O)O)c2)o1` the figure was 8.9 µM. Still for that read-out and setting: the result for `CN1C(=O)/C(=C/c2ccc(OCc3cccc(F)c3)cc2)S/C1=N/c1cccc(C(=O)O)c1` reads 12.5 µM; that for `O=C(O)c1ccc(Cl)cc1Nc1nc2ccccc2nc1NS(=O)(=O)c1ccc(Cl)cc1`, 17 µM. On to `O=S(=O)(O)c1ccc2cc(/N=N/c3cc(S(=O)(=O)O)c4cccnc4c3O)ccc2c1`, for which the IC50 in experiment [2] was found to be 16.7 µM.

Broadly, the IC50 is the concentration that gives 50% inhibition.

Values taken from ChEMBL document CHEMBL3045606, “Virtual screening and biochemical evaluation of the inhibitors of dual-specificity phosphatase 26” (Med Chem Res, 2013).
